Experimental data: article PMC6968488, “In vitro and in vivo evaluation of didymin cyclodextrin inclusion complexes: characterization and chemosensitization activity” (Drug Delivery, 2019)
Values after ≈ are worked out from the molar mass of the structure shown. Like-named read-outs stand apart in the source and are kept apart here.

Key:
MCF-7/ADR tumor = assay: In vivo antitumor efficacy in mice bearing resistant tumors; set-up: species or system BALB/c nude mice; conditions: DOX 5 mg/kg/3 days i.p.; Didymin/HP-β-CD 20 mg/kg/day i.g.; 14 days
Procedure: To further investigate the chemosensitivity of […] inclusion complex, female BALB/c nude mice (5-6 weeks old, Shanghai Laboratory Animal Center, China) were injected subcutaneously with MCF-7/ADR cells (10^7 cells/per mouse). […] (1) Control group, 0.9% saline (0.2 mL/kg/day, i.p.); (2) DOX group, DOX (5 mg/kg/3 days, i.p.); (3) DOX + […] group, DOX (5 mg/kg/3 days, […] was given by oral gavage (i.g.) while DOX was intraperitoneal injected (i.p.). DOX injection was performed 30 min after the […] by gavage. The mouse weight and tumor volume were measured every day. The tumor volume was obtained using the formula (Yao et al., [2019]). On day 14, the mice were sacrificed, and tumor tissues were collected, fixed and sliced for pathological examination (H&E staining, Ki67 immunohistochemical staining, and TUNEL assay).

MCF-7/ADR cells [1] = assay: MTT cytotoxicity / chemosensitivity assay, resistant tumor cells; assay type: cell-based
Procedure: (§1) The cytotoxicity of didymin on various cell lines was examined by MTT assay as previously reported (Yao et al., [2019]). The didymin solution was prepared by dissolving in DMSO at different concentrations and diluted with the fresh medium right before the treatment. The didymin inclusion complex was dispersed in the sterilized water and then diluted with the fresh medium before treatment. Experiments involving healthy cells (HUVEC, H9C2, and PC12) by culturing 100 μL cell suspension (5 × 10^4 cell/mL) in 96 well plates. After 24 h incubation, the didymin or didymin inclusion complexes contained medium was used to replace the overnight medium and cultured for 48 h, respectively. After that, the MTT solution at the concentration of 5 mg/mL was added to each well. After 4 h incubation, the medium was removed, and the MTT formazan was dissolved by DMSO. Then the DMSO solution is measured using a microplate reader with the absorbance wavelength at 570 nm. The untreated cells were used as control. The cell viability (%) was calculated as follows, cell viability (%) = Asample/Acontrol ×100.
(§2) The MCF-7 and MCF-7/ADR cells cytotoxicity of the combination of didymin and doxorubicin were evaluated by MTT assay, as mentioned above.

[2] = Solubility study of didymin in different media (HPLC); assay type: physicochemical; conditions: for solubility at 72 h: thermodynamic from solid, room temperature, 72 h stirring
Procedure: Add excess didymin into a different medium (water, ethanol, methanol, 1% β-CD, and 1% HP-β-CD), and keep stirring at room temperature for 72 h. After that, 1.5 mL of the suspension was taken for centrifugation to take the supernatant. After filtering with a […] filter membrane (Shanghai Boguang Biotechnology Co., Ltd, Shanghai, China), the concentration of each solution was measured by the HPLC method.
An analytical HPLC method was developed to determine the concentration of didymin. The chromatographic conditions are: Agilent HC-C18 column (4.6 mm × 250 mm, 5 μm) (Agilent Technologies, Inc., Santa Clara, CA, USA), the mobile phase was phosphate buffer (pH 6.8)–methanol (45:55), the detection wavelength was 283 nm, the column temperature was 25 °C, and the flow rate was 1.0 mL/min, and. The samples were filtered (0.45 μm) and deaerated before use.

MCF-7 cells = assay: MTT cytotoxicity / chemosensitivity assay, sensitive tumor cells; assay type: cell-based; conditions: MCF-7, without DOX, tested concentrations
Procedure: as §1, §2

MCF-7/ADR cells [3] = assay: Intracellular uptake study of DOX; assay type: cell-based; conditions: DOX 10 μM, 4 h, fluorescence microscopy and quantitative analysis
Procedure: The effect of didymin on the intracellular uptake of the P-gp substrate was conducted as previously reported (Dai et al., [2016]; Yao et al., [2019]). Briefly, MCF-7/ADR cells were seeded in a 6-well plate at 4 × 10^5 cell/mL overnight before the experiment. Then the cancer cells were incubated with DOX (10 μM) at a concentration with or without didymin formulations for 4 h. Then, the treated cells were washed with ice-cold PBS three times and recorded under fluorescence microscopy (Nikon, Tokyo, Japan). In an independent study, after treatment, the cells were washed with ice-cold PBS and then lysed. Then acetonitrile was added into the cell lysate to extract the didymin via protein precipitation (PP)/extraction method. The didymin concentration in the supernatant was determined by the previously validated HPLC method.

P-gp transporter = target: T1, P-gp transporter (Homo sapiens, UniProt P08183); assay: Calcein-AM extrusion assay; assay type: cell-based; conditions: MCF-7/ADR, 30 min pre-incubation then calcein-AM 30 min
T1 construct: endogenous in cells; host or cells: MCF-7/ADR cells
Procedure: The effect of didymin and its inclusion complex on the efflux function of P-gp transporter was studied using calcein-AM extrusion assay as reported (Dai et al., [2016]). Briefly, MCF-7/ADR cells were seeded in a 6-well plate at 2 × 10^5 cell/mL overnight before the experiment. The cancer cell was incubated with verapamil or didymin formulations for 30 min and then treated with calcein-AM for another 30 min. Then, the treated cells were washed with ice-cold PBS three times and recorded under fluorescence microscopy. In an independent study, after treatment, the cells were washed, trypsinized, and collected by centrifuge. The collected cells were then washed with PBS and analyzed by flow cytometry (BD Bioscience, Franklin Lakes, NJ, USA). The data was collected with 1 × 10^5 events counter per samples

[4] = Pharmacokinetic study after oral administration; assay type: in vivo; conditions: male, rat, plasma, SD rats, 25 mg/kg
Procedure: All animal experiments were carried out under the Guide for Care and Use of Laboratory Animals and approved by the approval of the Ethics Committee of Wenzhou Medical University. Male SD rats ([…], Shanghai Laboratory Animal Center, China) weighing 220–250 g (n = 6 per group) were studied in the pharmacokinetic study. Free didymin and two types of didymin inclusion complexes (25 mg/kg, respectively) were orally administered with sterilized water. Then blood samples were collected from the orbit venous plexus at predetermined time intervals. The blood samples were then centrifuged at 15000 r/min for 10 min, then dried at 40 °C under nitrogen flow to solid-phase extraction. Methanol was added to dissolve the residue. Then the concentration of didymin in plasma was determined by HPLC methods and calculated the pharmacokinetic parameters.

Acute toxicity study = assay type: in vivo, BALB/c mice; conditions: mice, single oral dose 250 mg/kg
Procedure: An acute toxicity test was conducted as previously reported (Kandhare et al., [2016]). In brief, the BALB/c mice weighing about 18–22 g were administrated of didymin at a single dose of 250 mg/kg using oral gastric gavages. […] On 15th day animals were sacrificed, and the major organs were collected, fixed, and sliced for H&E staining.

[5] = MTT cytotoxicity assay on healthy cells; assay type: cell-based; conditions: all tested concentrations 10 μM∼200 μM, read-out: cell viability
Procedure: as §1

T1 sequence (P08183 whole entry): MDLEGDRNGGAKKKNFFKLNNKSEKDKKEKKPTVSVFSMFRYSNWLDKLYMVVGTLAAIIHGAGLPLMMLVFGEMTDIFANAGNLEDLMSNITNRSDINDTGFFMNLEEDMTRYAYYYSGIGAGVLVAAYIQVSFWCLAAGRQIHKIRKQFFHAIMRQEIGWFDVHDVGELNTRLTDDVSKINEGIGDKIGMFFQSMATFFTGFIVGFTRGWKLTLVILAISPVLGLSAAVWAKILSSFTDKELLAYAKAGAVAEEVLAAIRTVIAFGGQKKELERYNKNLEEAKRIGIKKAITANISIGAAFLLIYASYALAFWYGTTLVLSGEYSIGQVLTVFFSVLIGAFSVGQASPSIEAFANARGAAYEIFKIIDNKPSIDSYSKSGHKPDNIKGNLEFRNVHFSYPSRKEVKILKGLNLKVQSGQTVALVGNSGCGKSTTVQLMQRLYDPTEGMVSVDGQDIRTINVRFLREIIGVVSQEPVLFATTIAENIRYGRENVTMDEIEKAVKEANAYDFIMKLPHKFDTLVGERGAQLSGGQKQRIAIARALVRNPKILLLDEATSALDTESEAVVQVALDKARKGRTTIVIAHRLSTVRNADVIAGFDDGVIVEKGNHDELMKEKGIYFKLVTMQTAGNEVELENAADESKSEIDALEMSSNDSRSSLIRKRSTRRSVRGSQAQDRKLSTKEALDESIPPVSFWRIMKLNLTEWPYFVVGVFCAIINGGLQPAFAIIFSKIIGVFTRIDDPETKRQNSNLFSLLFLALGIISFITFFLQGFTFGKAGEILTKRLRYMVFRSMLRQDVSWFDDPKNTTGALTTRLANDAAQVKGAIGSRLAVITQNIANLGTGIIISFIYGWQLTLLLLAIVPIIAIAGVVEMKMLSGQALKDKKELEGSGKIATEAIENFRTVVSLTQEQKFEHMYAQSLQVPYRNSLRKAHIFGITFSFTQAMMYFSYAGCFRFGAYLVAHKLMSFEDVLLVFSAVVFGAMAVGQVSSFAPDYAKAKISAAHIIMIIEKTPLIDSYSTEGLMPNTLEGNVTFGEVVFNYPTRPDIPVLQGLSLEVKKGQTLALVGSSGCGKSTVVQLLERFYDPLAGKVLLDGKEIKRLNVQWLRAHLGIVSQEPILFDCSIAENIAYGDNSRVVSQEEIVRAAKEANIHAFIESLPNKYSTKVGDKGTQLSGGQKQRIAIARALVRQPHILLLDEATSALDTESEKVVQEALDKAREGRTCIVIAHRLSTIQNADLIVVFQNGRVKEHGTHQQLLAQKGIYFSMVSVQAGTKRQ

COc1cccc2c1C(=O)c1c(O)c3c(c(O)c1C2=O)C[C@@](O)(C(=O)CO)C[C@@H]3O[C@H]1C[C@H](N)[C@H](O)[C@H](C)O1 [DOX, doxorubicin, reference compound]
tumor growth inhibition (MCF-7/ADR tumor): 34%
IC50 (MCF-7/ADR cells [1]; Homo sapiens, NCI/ADR-RES, free DOX): > 20 µM

COc1ccc(C2CC(=O)c3c(O)cc(OC4OC(COC5OC(C)C(O)C(O)C5O)C(O)C(O)C4O)cc3O2)cc1 (stereo not drawn) [didymin, isosakuranetin-7-beta-rutinoside]
solubility at 72 h ([2]; aqueous with cosolvent or surfactant or cyclodextrin, 1% HP-β-CD solution, read-out: solubility in 1% HP-β-CD solution): 735 ± 370 µg/mL (≈ 1240 µM)
solubility at 72 h ([2]; organic solvent or mixture, ethanol, read-out: solubility in ethanol): 1240 ± 720 µg/mL (≈ 2090 µM)
solubility at 72 h ([2]; organic solvent or mixture, methanol, read-out: solubility in methanol): 11200 ± 1190 µg/mL (≈ 18900 µM)
increase of aqueous solubility compared to free didymin ([2]; presence of HP-β-CD): 6.9 times
increase of aqueous solubility compared to free didymin ([2]; presence of β-CD): 4.7 times
solubility at 72 h ([2]; water, read-out: solubility in water): 107 ± 120 µg/mL (≈ 180 µM)
cytotoxicity alone (MCF-7 cells): did not exert toxicity on cancer cells
DOX intracellular accumulation (MCF-7/ADR cells [3]): increase the DOX intracellular accumulation
P-gp efflux function (intracellular calcein fluorescence) (P-gp transporter): significantly inhibit the function of P-gp transporter
Cmax [4]: 2770 ng/mL
Tmax [4]: 11.4 ± 3 min
half-life [4]: 105 ± 9.6 min
AUC(0-t) ([4]; read-out: AUC0–12 h): 5910 ng·h/mL
abnormal behaviors and weight change in the observation period (Acute toxicity study; 14 days): did not show any abnormal behaviors and weights change
H&E staining of major organs (Acute toxicity study; after 14 days): no signs of any toxicity
viability at 48 h ([5]; human, HUVEC cells): > 90%
viability at 48 h ([5]; rat, H9C2 cells, H9C2, 48 h): > 90%
viability at 48 h ([5]; rat, PC12 cells, PC12, 48 h): > 90%
cytotoxicity alone (MCF-7/ADR cells [1]; without DOX, tested concentrations): did not exert toxicity on cancer cells
